Several values for one entry are separate records, joined by “and”; a condition that tells them apart may be missing. Identical values can stand only once. Inconclusive results and toxic doses are left out. Rule for the calls: active = survival T/C of 150% or more; inactive = T/C below 125% in these data.
System: BDF1 mice, P388 leukemia ip, median survival T/C
Assay: NCI In Vivo Anticancer Drug Screen. Data for tumor model P388 Leukemia (intraperitoneal) in B6D2F1 (BDF1) mice
Settings: endpoint: median survival time, higher = longer survival
In short: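 Transplantable tumour in mice; compound vs vehicle dosing; survival scored; ratio of treated to control reported.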

[1] = dose: 200.0 mg/kg/injection, schedule: Q04DX003 (ip), vehicle: saline with Tween-80
[2] = dose: 50.0 mg/kg/injection, schedule: Q01DX009 (ip), vehicle: saline with Tween-80
[3] = dose: 100.0 mg/kg/injection, schedule: Q01DX009 (ip), vehicle: saline with Tween-80
[4] = dose: 200.0 mg/kg/injection, schedule: Q01DX009 (ip), vehicle: saline with Tween-80
[5] = dose: 25.0 mg/kg/injection, schedule: Q01DX009 (ip), vehicle: Klucel (hydroxypropylcellulose) (HPC)
[6] = dose: 50.0 mg/kg/injection, schedule: Q01DX009 (ip), vehicle: Klucel (hydroxypropylcellulose) (HPC)
[7] = dose: 100.0 mg/kg/injection, schedule: Q04DX003 (ip), vehicle: Klucel (hydroxypropylcellulose) (HPC)

Measured: T/C

CC(=O)NNC(=O)c1ccccn1
inactive: dose: 4.0 mg/kg/injection, schedule: Q03HX024 (ip), vehicle: saline 100 % of control | dose: 8.0 mg/kg/injection, schedule: Q03HX008 (ip), vehicle: saline 100 % of control | dose: 8.0 mg/kg/injection, schedule: Q03HX016 (ip), vehicle: saline 95 % of control | dose: 8.0 mg/kg/injection, schedule: Q03HX024 (ip), vehicle: saline 90 % of control | dose: 16.0 mg/kg/injection, schedule: Q03HX008 (ip), vehicle: saline 90 % of control | dose: 16.0 mg/kg/injection, schedule: Q03HX016 (ip), vehicle: saline 90 % of control | dose: 16.0 mg/kg/injection, schedule: Q03HX024 (ip), vehicle: saline 100 % of control | dose: 19.0 mg/kg/injection, schedule: Q01DX010 (ip), vehicle: water 95 % of control | dose: 32.0 mg/kg/injection, schedule: Q01DX009 (ip), vehicle: saline 90 % of control | dose: 32.0 mg/kg/injection, schedule: Q01DX009 (oral), vehicle: saline 90 % of control | dose: 32.0 mg/kg/injection, schedule: Q03HX008 (ip), vehicle: saline 95 % of control | dose: 32.0 mg/kg/injection, schedule: Q03HX016 (ip), vehicle: saline 90 % of control | dose: 32.0 mg/kg/injection, schedule: Q03HX024 (ip), vehicle: saline 90 % of control | dose: 32.0 mg/kg/injection, schedule: Q04DX003 (ip), vehicle: saline 90 % of control | dose: 38.0 mg/kg/injection, schedule: Q01DX010 (ip), vehicle: water 100 % of control | dose: 50.0 mg/kg/injection, schedule: Q01DX009 (ip), vehicle: water 113 % of control | dose: 50.0 mg/kg/injection, schedule: Q01DX009 (oral), vehicle: water 109 % of control | dose: 64.0 mg/kg/injection, schedule: Q01DX001 (ip), vehicle: saline 90 % of control | dose: 64.0 mg/kg/injection, schedule: Q01DX001 (oral), vehicle: saline 90 % of control | dose: 64.0 mg/kg/injection, schedule: Q01DX009 (ip), vehicle: saline 90 % of control | dose: 64.0 mg/kg/injection, schedule: Q01DX009 (oral), vehicle: saline 90 % of control | dose: 64.0 mg/kg/injection, schedule: Q03HX008 (ip), vehicle: saline 95 % of control | dose: 64.0 mg/kg/injection, schedule: Q03HX016 (ip), vehicle: saline 90 % of control | dose: 64.0 mg/kg/injection, schedule: Q03HX024 (ip), vehicle: saline 90 % of control | dose: 64.0 mg/kg/injection, schedule: Q04DX003 (ip), vehicle: saline 100 % of control | dose: 64.0 mg/kg/injection, schedule: Q08DX002 (ip), vehicle: saline 90 % of control | dose: 75.0 mg/kg/injection, schedule: Q01DX010 (ip), vehicle: water 100 % of control | dose: 100.0 mg/kg/injection, schedule: Q01DX009 (oral), vehicle: water 109 % of control | dose: 128.0 mg/kg/injection, schedule: Q01DX001 (ip), vehicle: saline 100 % of control | dose: 128.0 mg/kg/injection, schedule: Q01DX001 (oral), vehicle: saline 95 % of control | dose: 128.0 mg/kg/injection, schedule: Q01DX009 (ip), vehicle: saline 95 % of control | dose: 128.0 mg/kg/injection, schedule: Q01DX009 (oral), vehicle: saline 90 % of control | dose: 128.0 mg/kg/injection, schedule: Q04DX003 (ip), vehicle: saline 90 % of control | dose: 128.0 mg/kg/injection, schedule: Q08DX002 (ip), vehicle: saline 90 % of control | dose: 256.0 mg/kg/injection, schedule: Q01DX001 (ip), vehicle: saline 90 % of control | dose: 256.0 mg/kg/injection, schedule: Q01DX001 (oral), vehicle: saline 90 % of control | dose: 256.0 mg/kg/injection, schedule: Q04DX003 (ip), vehicle: saline 95 % of control

CCOC(=O)CC/[N+]([O-])=C/c1ccccc1
inactive: dose: 12.5 mg/kg/injection, schedule: Q01DX009 (ip), vehicle: other 97 % of control | dose: 25.0 mg/kg/injection, schedule: Q01DX009 (ip), vehicle: other 112 % of control | dose: 50.0 mg/kg/injection, schedule: Q01DX009 (ip), vehicle: other 92 % of control | dose: 100.0 mg/kg/injection, schedule: Q01DX009 (ip), vehicle: other 97 % of control | dose: 200.0 mg/kg/injection, schedule: Q01DX009 (ip), vehicle: other 104 % of control

CCOC(=O)CCC(NC(=O)N(CCCl)CCCl)C(=O)OCC (stereo not drawn)
active: dose: 132.0 mg/kg/injection, schedule: Q04DX003 (ip), vehicle: saline with Tween-80 175 % of control | [1] 204 % of control | dose: 300.0 mg/kg/injection, schedule: Q04DX003 (ip), vehicle: saline with Tween-80 183 % of control

CCOC1(OCC)OC(c2ccccc2)=C(C#N)C(/C=C\c2ccccc2)C1(OCC)OCC (stereo not drawn)
inactive: [2] 92 % of control | [3] 92 % of control | [4] 90 % of control

COc1ccc(CNc2ncccn2)cc1
inactive: [5] 95 % of control | [6] 100 % of control | dose: 100.0 mg/kg/injection, schedule: Q01DX009 (ip), vehicle: Klucel (hydroxypropylcellulose) (HPC) 104 % of control | [7] 88 % of control | dose: 200.0 mg/kg/injection, schedule: Q01DX009 (ip), vehicle: Klucel (hydroxypropylcellulose) (HPC) 89 % of control | dose: 200.0 mg/kg/injection, schedule: Q04DX003 (ip), vehicle: Klucel (hydroxypropylcellulose) (HPC) 96 % of control

C[n+]1c(-c2ccccc2)c2cc(N)ccc2c2ccc(N)cc21
active: dose: 25.0 mg/kg/injection, schedule: Q04DX003 (ip), vehicle: saline with Tween-80 171 % of control
inactive: dose: 50.0 mg/kg/injection, schedule: Q04DX003 (ip), vehicle: saline with Tween-80 90 % of control

CC[n+]1ccc(Cc2ccc([N+](=O)[O-])cc2)cc1
inactive: [5] 104 % of control and 119 % of control | dose: 25.0 mg/kg/injection, schedule: Q04DX003 (ip), vehicle: Klucel (hydroxypropylcellulose) (HPC) 100 % of control | [6] 109 % of control | dose: 50.0 mg/kg/injection, schedule: Q04DX003 (ip), vehicle: Klucel (hydroxypropylcellulose) (HPC) 100 % of control | [7] 100 % of control

CS(=O)(=O)CC(O)(c1ccccc1)c1ccncc1 (stereo not drawn)
inactive: [2] 96 % of control | [3] 90 % of control | [4] 98 % of control

CNC[C@@H](O)c1ccc(O)c(O)c1
inactive: dose: 0.25 mg/kg/injection, schedule: Q04DX003 (ip), vehicle: saline 110 % of control | dose: 0.5 mg/kg/injection, schedule: Q01DX009 (ip), vehicle: saline 91 % of control and 109 % of control | dose: 0.5 mg/kg/injection, schedule: Q04DX003 (ip), vehicle: saline 110 % of control | dose: 1.0 mg/kg/injection, schedule: Q01DX001 (ip), vehicle: saline 95 % of control | dose: 1.0 mg/kg/injection, schedule: Q01DX009 (ip), vehicle: saline 100 % of control | dose: 1.0 mg/kg/injection, schedule: Q04DX003 (ip), vehicle: saline 105 % of control | dose: 2.0 mg/kg/injection, schedule: Q01DX001 (ip), vehicle: saline 104 % of control | dose: 2.0 mg/kg/injection, schedule: Q01DX009 (ip), vehicle: saline 91 % of control and 109 % of control | dose: 2.0 mg/kg/injection, schedule: Q04DX003 (ip), vehicle: saline 86 % of control | dose: 4.0 mg/kg/injection, schedule: Q01DX009 (ip), vehicle: saline 95 % of control and 100 % of control | dose: 9.0 mg/kg/injection, schedule: Q01DX009 (ip), vehicle: saline 95 % of control

CCCCSc1ncnc2nc[nH]c12
inactive: dose: 100.0 mg/kg/injection, schedule: Q04DX003 (ip), vehicle: saline with Tween-80 104 % of control | [1] 100 % of control

O=[N+]([O-])c1cc2no[n+]([O-])c2cc1N1CCOCC1
inactive: dose: 30.0 mg/kg/injection, schedule: Q01DX009 (ip), vehicle: saline with Tween-80 108 % of control
